Test results as given in publication PMC8805605, “Discovery of Dimeric Arylsulfonamides as Potent ADAM8 Inhibitors” (ACS Medicinal Chemistry Letters, 2021).

How the values were obtained:
MMP-1 = biological target: T1, MMP-1 (Homo sapiens, UniProt P03956); test: MMP-1 fluorometric inhibition assay; type: biochemical; details: mean of three independent experiments in duplicate, read-out: In vitro inhibitory activity IC50 on MMP-1
T1 construct: purchased Calbiochem (Merck-Millipore)
T1 sequence (P03956 100-469): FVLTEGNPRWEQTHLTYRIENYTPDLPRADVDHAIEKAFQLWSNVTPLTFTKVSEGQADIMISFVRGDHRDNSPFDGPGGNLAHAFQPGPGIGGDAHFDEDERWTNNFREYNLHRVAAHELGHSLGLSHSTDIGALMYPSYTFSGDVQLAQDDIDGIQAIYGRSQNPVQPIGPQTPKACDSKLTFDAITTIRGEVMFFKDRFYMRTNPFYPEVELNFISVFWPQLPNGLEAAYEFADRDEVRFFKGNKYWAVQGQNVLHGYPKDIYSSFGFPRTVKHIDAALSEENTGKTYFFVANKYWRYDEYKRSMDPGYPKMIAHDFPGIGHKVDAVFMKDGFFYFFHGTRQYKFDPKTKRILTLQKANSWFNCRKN
Method: The newly synthesized bivalent derivatives 1–3 were then tested in vitro on human recombinant ADAM8 in comparison with JG26 by a fluorometric assay. The inhibitory activity against a panel of MMPs and ADAM10/17 was determined as well to assess their selectivity profile. […]
VI. Biological Activity on Isolated Enzymes
MMP and ADAM10 inhibition assays.
Recombinant human MMP-14 catalytic domain was a kind gift of Prof. Gillian Murphy (Department of […]
Oncology, University of Cambridge, UK). Pro-MMP-1, pro-MMP-2, and pro-MMP-9, were purchased […]
from Calbiochem (Merck-Millipore). Pro-MMP-12 and ADAM10 were purchased from R&D Systems.
Proenzymes were activated immediately prior to use with p-aminophenylmercuric acetate (APMA 2 […]
mM for 1 h at 37°C for MMP-2 and MMP-1, 1 mM for 1 h at 37°C for MMP-9). Pro-MMP-12 was […]
auto activated by incubating in the fluorometric assay buffer (FAB: Tris 50 mM, pH = 7.5, NaCl 150 […]
mM, CaCl2 10 mM, Brij 35 0.05% and DMSO 1%) for 30 h at 37°C. For assay measurements, each […]
inhibitor stock solution (DMSO, 10 mM) was further diluted in FAB at seven different concentrations.
Activated enzyme (final concentration 0.56 nM for MMP-2, 1.3 nM for MMP-9, 1.0 nM for MMP- […]
14cd, 2.0 nM for MMP-1, 2.3 nM for MMP-12 and 20 nM for ADAM10) and inhibitor solutions were […]
incubated in the assay buffer for 3 h at 25 °C. ADAM10 was incubated for 1 h at 37°C in a different […]
buffer at pH 9 (Tris 25 mM, ZnCl2 25 µM, Brij-35 0.005 %). After the addition of 200 µM solution of […]
the fluorogenic substrate Mca-Lys-Pro-Leu-Gly-Leu-Dap(Dnp)-Ala-Arg-NH2 (Bachem) for all the […]
enzymes in DMSO (final concentration 2 µM for all enzymes, 10 µM for ADAM10), the hydrolysis […]
was monitored every 10 sec. for 15 min. recording the increase in fluorescence (λ ex = 325 nm, λ em = […]
400 nm) using a Molecular Devices SpectraMax Gemini XPS plate reader. The assays were performed […]
in triplicate in a total volume of 200 μL per well in 96-well microtitre plates (Corning, black, NBS).
Control wells lack inhibitor. The MMP inhibition activity was expressed in relative fluorescent units […]
(RFU). Percent of inhibition was calculated from control reactions without the inhibitor. IC50 was determined using the formula: v i/v o = 1/(1 + [I]/ IC50), where v i is the initial velocity of substrate cleavage in the presence of the inhibitor at concentration [I] and v o is the initial velocity in the absence of the inhibitor. Results were analyzed using SoftMax Pro software (version 5.4.3, Molecular Devices, Sunnyvale, CA) and Prism Software version 5.0 (GraphPad Software, Inc., La Jolla, CA, USA).
ADAM8 and ADAM17 inhibition assays […]

[1] = tested on: ADAM8-dependent shedding of CD23 in double-stable HEK cells (ADAM8/CD23); test: Cell-based CD23 shedding assay (soluble CD23 ELISA); details: Homo sapiens, HEK293, 24 h incubation, 125 nM to 10 μM, ELISA of supernatants, read-out: IC50 for shedding of CD23 (soluble CD23 release)
Method: Next, these compounds were tested for their ability to inhibit the shedding of an ADAM8-dependent cell surface protein, the low affinity IgE receptor CD23, […]. In brief, a human embryonic kidney (HEK) cell line expressing ADAM8 and CD23[13] was incubated with different concentrations of inhibitors, and the release of soluble CD23 in the cell supernatants was determined by a CD23 enzyme-linked immunosorbent assay (ELISA) (Figure 4).
Figure 4 Effects of new compounds 1–3 and JG26 (125 nM to 10 μM) on the shedding of CD23 in a cell-based assay using double-stable HEK cells (ADAM8/CD23). After the incubation of cells with 1–3 and JG26 for 24 h, cell supernatants were collected and subjected to an ELISA to determine the amount of soluble CD23. Data are the mean values from three independent experiments performed in triplicate. […]
VII. Biological Activity on cells
Cell-based shedding assay
HEK293 cells stably transfected with ADAM8 and CD23 were incubated for 24 h at 37°C in the presence of inhibitors in concentrations indicated in DMEM medium supplemented with 10% fetal calf serum. A human soluble CD23 ELISA (R&D Systems, Biotechne, Wiesbaden) was used to detect ADAM8-dependent release of soluble CD23 in the cell culture medium. ELISA experiments were performed in three independent experiments in triplicates. The relative CD23 release (control = 100%) was determined for all samples. […]

Row | SMILES | IC50 (MMP-1) | IC50 [1]
1 | O=C(CCCNC(=O)c1cccc(C(=O)NCCCC(=O)NCCC[C@@H](NS(=O)(=O)c2ccc(OCc3cc(Br)cc(Br)c3)cc2)C(=O)NO)c1)NCCC[C@@H](NS(=O)(=O)c1ccc(OCc2cc(Br)cc(Br)c2)cc1)C(=O)NO [Compound 1] | 415000 nM | > 1500 nM
2 | O=C(NCCC[C@@H](NS(=O)(=O)c1ccc(OCc2cc(Br)cc(Br)c2)cc1)C(=O)NO)c1cccc(C(=O)NCCC[C@@H](NS(=O)(=O)c2ccc(OCc3cc(Br)cc(Br)c3)cc2)C(=O)NO)c1 [Compound 2] | > 200000 nM | 350 nM
3 | O=C(NCCC[C@@H](NS(=O)(=O)c1ccc(OCc2cc(Br)cc(Br)c2)cc1)C(=O)NO)NCCC[C@@H](NS(=O)(=O)c1ccc(OCc2cc(Br)cc(Br)c2)cc1)C(=O)NO [Compound 3] | 348000 nM | 800 nM
4 | NC(=O)NCCC[C@@H](NS(=O)(=O)c1ccc(OCc2cc(Br)cc(Br)c2)cc1)C(=O)NO [JG26, reference compound] | > 500000 nM | 120 nM
